Assay results from US20190226949A1, “IRIDIUM COMPLEXES FOR CELLULAR IMAGING” (UNIVERSITY OF SOUTH AUSTRALIA, priority 2016, published 2019).
Several values for one entry are separate records, joined by “and”; a condition that tells them apart may be missing. Identical values can stand only once.

What was measured:
[1] = Lipophilicity by shake-flask method (7.4-buffered PBS / n-octanol); assay type: physicochemical; conditions: 7.4-buffered PBS solution and n-octanol
Method: The lipophilicity of the iridium complexes was measured by the shake-flask method using 7.4-buffered PBS and n-octanol as solvents (Table 2). The values range between 1.49 and 2.68 are typical for cyclometalated iridium complexes that have not been bioconjugated. […] In general, neutral complexes have log D7.4 values above 2.00 and there is an increased in lipophilicity of extending the tetrazolato ligand with the addition of a phenyl spacer in [Ir(ppy)2(TzPyPhCN)], or by extending the conjugation on passing from pyridine to quinoline or isoquinoline for [Ir(ppy)2(TzQn)] and [Ir(ppy)2(TziQn)]. Methylation in all cases reduces lipophilicity to log D7.4 values […], with the same trend within the family of methylated complexes as previously observed for the neutral ones.

[2] = Photophysical measurements (absorption, emission, lifetime, quantum yield) in diluted solutions; assay type: physicochemical; conditions: for Emission λem / τaer, excited state lifetime (relative weight in parentheses) / τdeaer, excited state lifetime (relative weight in parentheses): 298K; for Φaer, quantum yield / Φdeaer, quantum yield: versus Ru(bpy)3^2+ in water (φr = 0.028); for τdeaer, excited state lifetime (relative weight in parentheses) / Φdeaer, quantum yield: deaerated; for knr: calculated as [(1 − φ)/τ] from deaerated solutions; for kr: calculated as [φ/τ] from deaerated solutions; for Φ, quantum yield: versus Ru(bpy)3^2+ in water
From the text: A summary of the photophysical data for the complexes as diluted solutions (10^−5 M) in dichloromethane, water, PBS, lysosomal fluid solution, and ethyl laurate is reported in Table 1. All the listed aqueous media also contain 0.1% DMSO to favour the solubilisation of the complexes. The various solvents have been chosen to identify potential modulations on the photophysical behaviour of the iridium complexes in diverse cellular environments such as cytoplasm, endosome/lysosomes acidic organelles, or lipid-rich compartments like membranes, endoplasmic reticulum, and lipid droplets. In general, the photophysical characteristics were measured in aerated solutions to take into account the presence of oxygen in live cells. On the other hand, dichloromethane solutions were compared as aerated and degassed to confirm oxygen sensitivity and triplet character of the excited states of the complexes.
Absorption spectra were recorded at room temperature using a Cary 4000 UV/Vis spectrometer. Uncorrected steady state emission and excitation spectra were recorded on an Edinburgh FLSP980-S2S2-stm spectrometer equipped with: i) a temperature-monitored cuvette holder; ii) 450 W Xenon arc lamp; iii) double excitation and emission monochromators; iv) a Peltier cooled Hamamatsu R928P photomultiplier tube (spectral range 200-870 nm). Emission and excitation spectra were corrected for source intensity (lamp and grating) and emission spectral response (detector and grating) by a calibration curve supplied with the instrument. According to the approach described by Demas and Crosby, luminescence quantum yields (Φem) were measured in optically dilute solutions (O.D.<0.1 at excitation wavelength) obtained from absorption spectra on a wavelength scale [nm] and compared to the reference emitter by the following equation: […]
where A is the absorbance at the excitation wavelength (λ), I is the intensity of the excitation light at the excitation wavelength (λ), n is the refractive index of the solvent, D is the integrated intensity of the luminescence and Φ is the quantum yield. The subscripts r and x refer to the reference and the sample, respectively. The quantum yield determinations were performed at identical excitation wavelength for the sample and the reference, therefore cancelling the I(λr)/I(λx) term in the equation. The quantum yields of complexes were measured against Rubipy in water (Φr=0.028). Emission lifetimes (z) were determined with the time correlated single photon counting technique (TCSPC) with the same Edinburgh FLSP980-S2S2-stm spectrometer using either a pulsed picosecond LED (EPLED/EPL 377 nm, FHWM<800 ps) or a microsecond flashlamp. The goodness of fit was assessed by minimising the reduced χ^2 function and by visual inspection of the weighted residuals. The solvents used for the preparation of the solutions for the photophysical investigations were of LR grade and the water was deionised. Degassing of the dichlorometane solutions was performed using the freeze-pump-thaw method. Experimental uncertainties are estimated to be ±8% for lifetime determinations, ±20% for quantum yields, ±2 nm and ±5 nm for absorption and emission peaks, respectively.

| logD7.4, distribution coefficient [1] | Emission λem ([2]; DCM, 10^−5 M) | τaer, excited state lifetime (relative weight in parentheses) ([2]; DCM, aerated) [ns] | Φaer, quantum yield ([2]; DCM, aerated) | τdeaer, excited state lifetime (relative weight in parentheses) ([2]; DCM) [ns] | Φdeaer, quantum yield ([2]; DCM) | knr ([2]; DCM) | kr ([2]; DCM) | Emission λem ([2]; H2O with 0.1% DMSO, aerated) [nm] | Φ, quantum yield ([2]; H2O with 0.1% DMSO, aerated) | Compound | Absorption λabs [nm] (10^4ε [M^−1cm^−1]) ([2]; DCM, 10^−5 M) | Absorption λabs [nm] (10^4ε [M^−1cm^−1]) ([2]; H2O with 0.1% DMSO, 10^−5 M) |
| --- | --- | --- | --- | --- | --- | --- | --- | --- | --- | --- | --- | --- |
| 2.68 ± 0.08 | 560 nm | 114 | 0.023 | 880 | 0.149 | 0.967 10^6s^−1 | 1.693 10^5s^−1 | 580 | 0.055 | N#Cc1ccc(-c2ccc3[n+](c2)[Ir]24([c]5ccccc5-c5cccc[n+]52)([c]2ccccc2-c2cccc[n+]24)[n]2nnnc2-3)cc1 [[Ir(ppy)2(TzPyPhCN)]] | 268 (3.95) nm (10^4ε [M^−1cm^−1]) and 290 (3.64) nm (10^4ε [M^−1cm^−1]) and 345 (0.58) nm (10^4ε [M^−1cm^−1]) and 423 (0.27) nm (10^4ε [M^−1cm^−1]) | 286 (1.87) nm (10^4ε [M^−1cm^−1]) and 350 (0.86) nm (10^4ε [M^−1cm^−1]) and 421 (0.34) nm (10^4ε [M^−1cm^−1]) |
| 2.23 ± 0.04 | 580 nm | 153 | 0.021 | 831 | 0.065 | 1.125 10^6s^−1 | 0.782 10^5s^−1 | 600 | 0.039 | c1cc[c]2c(c1)-c1cccc[n+]1[Ir]213([c]2ccccc2-c2cccc[n+]21)[n]1nnnc1-c1ccc2ccccc2[n+]13 [[Ir(ppy)2(TzQn)]] | 263 (8.44) nm (10^4ε [M^−1cm^−1]) and 345 (1.97) nm (10^4ε [M^−1cm^−1]) and 428 (0.42) nm (10^4ε [M^−1cm^−1]) | 266 (4.41) nm (10^4ε [M^−1cm^−1]) and 350 (2.35) nm (10^4ε [M^−1cm^−1]) and 425 (0.97) nm (10^4ε [M^−1cm^−1]) |
| 2.57 ± 0.05 | 535, nm and 575 nm and 620 nm | 497 | 0.036 | 6713 | 0.144 | 0.128 10^6s^−1 | 0.214 10^5s^−1 | 590 | 0.018 | c1cc[c]2c(c1)-c1cccc[n+]1[Ir]213([c]2ccccc2-c2cccc[n+]21)[n]1nnnc1-c1c2ccccc2cc[n+]13 [[Ir(ppy)2(TziQn)]] | 260 (9.77) nm (10^4ε [M^−1cm^−1]) and 340 (3.13) nm (10^4ε [M^−1cm^−1]) and 424 (0.75) nm (10^4ε [M^−1cm^−1]) | 268 (3.42) nm (10^4ε [M^−1cm^−1]) and 350 (2.00) nm (10^4ε [M^−1cm^−1]) and 435 (0.80) nm (10^4ε [M^−1cm^−1]) |
